Like-named read-outs stand apart in the source and are kept apart here.
How the values were obtained:
[1] = tested on: HCV genotype 1b (Con1) replicon in HUH-7 cells; assay: HCV replicon luciferase reporter assay, genotype 1b; assay type: cell-based; settings: Hepatitis C virus, Huh-7, 72 h, 3 days incubation
Procedure, shortened: (§1)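 Replicon inhibition for both genotypes was measured as Renilla luciferase signal (EnduRen, 7.5 μM final, 2 h) after 3-day, 37° C exposure of replicon-bearing HUH-7 cells in 4% FCS DMEM, 0.5% DMSO. The 1b construct carries S1179I; the 1a H77 construct carries P1496L and S2204I. Twenty-point, 3-fold dilutions were fitted four-parametrically for EC50, and CC50 was taken from multiplexed Cell Titer-Blue.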

[2] = tested on: HCV genotype 1a (H77 strain) replicon in HUH-7 cells; assay: HCV replicon luciferase reporter assay, genotype 1a; assay type: cell-based; settings: Hepatitis C virus, Huh-7, 72 h, 3 days incubation
Procedure, shortened: as §1

[3] = HCV genotype 1b replicon luciferase assay, range class, read-out: LE_1b (EC50, range)
[4] = HCV genotype 1a replicon luciferase assay, range class, read-out: LE_1a (EC50, range)
[5] = HCV genotype 1b replicon luciferase, read-out: LE_1b (EC50, range)
[6] = HCV genotype 1a replicon luciferase, read-out: LE_1a (EC50, range)

Question: What does the source list for `COc1ccc2c(O[C@@H]3C[C@H]4C(=O)N[C@]5(C(=O)NS(=O)(=O)C6(C)CC6)C[C@H]5/C=C\CC[C@@H](C)C[C@@H](C)[C@H](NC(=O)OC(C)(C)C)C(=O)N4C3)nc(OC)cc2c1` [Compound 1131, tert-butyl ((2R,6S,7R,9R,13aS,14aR,16aS,Z)-2-((3,6-dimethoxyisoquinolin-1-yl)oxy)-7,9-dimethyl-14a-(((1-methylcyclopropyl)sulfonyl)carbamoyl)-5,16-dioxo-1,2,3,5,6,7,8,9,10,11,13a,14,14a,15,16,16a-hexadecahydrocyclopropa[e]pyrrolo[1,2-a][1,4]diazacyclopentadecin-6-yl)carbamate]?
Answer: EC50 [1, 3]: < 5.46 nM; EC50 [2, 4]: < 5.46 nM

Question: `COc1ccc2c(O[C@@H]3C[C@H]4C(=O)N[C@]5(C(=O)NS(=O)(=O)C6CC6)C[C@H]5/C=C\CC[C@@H](C)C[C@@H](C)[C@H](NC(=O)OC(C)(C)C(F)(F)F)C(=O)N4C3)nc(-c3ccc(F)cc3)cc2c1` [Compound 3044, 1,1,1-trifluoro-2-methylpropan-2-yl((2R,6S,7R,9R,13aS,14aR,16aS,Z)-14a-((cyclopropylsulfonyl)carbamoyl)-2-((3-(4-fluorophenyl)-6-methoxyisoquinolin-1-yl)oxy)-7,9-dimethyl-5,16-dioxo-1,2,3,5,6,7,8,9,10,11,13a,14,14a,15,16,16a-hexadecahydrocyclopropa[e]pyrrolo[1,2-a][1,4]diazacyclopentadecin-6-yl)carbamate] was tested. Which EC50 [1, 3] did it give?
Answer: < 5.46 nM

Question: What about the EC50 [2, 4] of the same compound?
Answer: < 5.46 nM

Question: `COc1ccc2nc(OC)c(O[C@@H]3C[C@H]4C(=O)N[C@]5(C(=O)NS(=O)(=O)C6(CF)CC6)C[C@H]5/C=C\CC[C@@H](C)C[C@@H](C)[C@H](NC(=O)OC(C)(C)C)C(=O)N4C3)cc2c1` [Compound 4376, tert-butyl ((2R,6S,7R,9R,13aS,14aR,16aS,Z)-2-((2,6-dimethoxyquinolin-3-yl)oxy)-14a-(((1-(fluoromethyl)cyclopropyl)sulfonyl)carbamoyl)-7,9-dimethyl-5,16-dioxo-1,2,3,5,6,7,8,9,10,11,13a,14,14a,15,16,16a-hexadecahydrocyclopropa[e]pyrrolo[1,2-a][1,4]diazacyclopentadecin-6-yl)carbamate] was tested. Which EC50 [1, 5] did it give?
Answer: 0.1 to 0.5 nM

Question: What about the EC50 [2, 6] of the same compound?
Answer: 1.01 to 5 nM

Question: For `C[C@H]1CC/C=C\[C@@H]2C[C@@]2(C(=O)NS(=O)(=O)C2(C)CC2)NC(=O)[C@@H]2C[C@@H](Oc3nccc4c5c(ccc34)N(C)CCO5)CN2C(=O)[C@@H](NC(=O)OC(C)(C)C(F)(F)F)[C@H](C)C1` [Compound 5295, 1,1,1-trifluoro-2-methylpropan-2-yl((2R,6S,7R,9S,13aS,14aR,16aS,Z)-7,9-dimethyl-2-((4-methyl-3,4-dihydro-2H-[1,4]oxazino[2,3-f]isoquinolin-7-yl)oxy)-14a-(((1-methylcyclopropyl)sulfonyl)carbamoyl)-5,16-dioxo-1,2,3,5,6,7,8,9,10,11,13a,14,14a,15,16,16a-hexadecahydrocyclopropa[e]pyrrolo[1,2-a][1,4]diazacyclopentadecin-6-yl)carbamate], which EC50 [1, 5] is on record?
Answer: < 5.46 nM

Question: What about the EC50 [2, 6] of the same compound?
Answer: 4.82 to 103 nM

Question: With `C[C@@H]1CC/C=C\[C@@H]2C[C@@]2(C(=O)NS(=O)(=O)C2(C)CC2)NC(=O)[C@@H]2C[C@@H](Oc3nc4c(c5ccccc35)OCCC4)CN2C(=O)[C@@H](NC(=O)OC(C)(C)C(C)(F)F)[C@H](C)C1` [Compound 6034, 3,3-difluoro-2-methylbutan-2-yl((2R,6S,7R,9R,13aS,14aR,16aS,Z)-2-((3,4-dihydro-2H-pyrano[3,2-c]isoquinolin-6-yl)oxy)-7,9-dimethyl-14a-(((1-methylcyclopropyl)sulfonyl)carbamoyl)-5,16-dioxo-1,2,3,5,6,7,8,9,10,11,13a,14,14a,15,16,16a-hexadecahydrocyclopropa[e]pyrrolo[1,2-a][1,4]diazacyclopentadecin-6-yl)carbamate] as the compound, how does the EC50 [1, 5] read?
Answer: < 5.46 nM

Question: And the EC50 [2, 6]?
Answer: < 5.46 nM

Question: With `COc1cc2ccccc2c(O[C@@H]2C[C@H]3C(=O)N[C@]4(C(=O)NS(=O)(=O)C5(CF)CC5)C[C@H]4/C=C\CC[C@@H](C)C[C@@H](C)[C@H](NC(=O)OC(C)(C)C(C)(F)F)C(=O)N3C2)n1` [Compound 6038, 3,3-difluoro-2-methylbutan-2-yl((2R,6S,7R,9R,13aS,14aR,16aS,Z)-14a-(((1-(fluoromethyl)cyclopropyl)sulfonyl)carbamoyl)-2-((3-methoxyisoquinolin-1-yl)oxy)-7,9-dimethyl-5,16-dioxo-1,2,3,5,6,7,8,9,10,11,13a,14,14a,15,16,16a-hexadecahydrocyclopropa[e]pyrrolo[1,2-a][1,4]diazacyclopentadecin-6-yl)carbamate] as the compound, how does the EC50 [1, 5] read?
Answer: < 5.46 nM

Question: What about the EC50 [2, 6] of the same compound?
Answer: < 5.46 nM

Question: How did the EC50 [1, 5] turn out when `COc1ccc2c(O[C@@H]3C[C@H]4C(=O)N[C@]5(C(=O)NS(=O)(=O)C6CC6)C[C@H]5/C=C\CC[C@@H](C)C[C@@H](C)[C@H](NC(=O)OC5C[C@@H]6C[C@@H]6C5)C(=O)N4C3)nc(-c3ccc(OC(C)C)nc3)cc2c1` (stereo partly drawn) [Compound 5219, (1R,3r,5S)-bicyclo[3.1.0]hexan-3-yl((2R,6S,7R,9R,13aS,14aR,16aS,Z)-14a-((cyclopropylsulfonyl)carbamoyl)-2-((3-(6-isopropoxypyridin-3-yl)-6-methoxyisoquinolin-1-yl)oxy)-7,9-dimethyl-5,16-dioxo-1,2,3,5,6,7,8,9,10,11,13a,14,14a,15,16,16a-hexadecahydrocyclopropa[e]pyrrolo[1,2-a][1,4]diazacyclopentadecin-6-yl)carbamate] was run?
Answer: < 5.46 nM

Question: What about the EC50 [2, 6] of the same compound?
Answer: < 5.46 nM

Question: What does the source list for `CCCOc1cc2c(Cl)cccc2c(O[C@@H]2C[C@H]3C(=O)N[C@]4(C(=O)NS(=O)(=O)C5(C)CC5)C[C@H]4/C=C\CC[C@H](C)C[C@@H](C)[C@H](NC(=O)OC(C)(C)C)C(=O)N3C2)n1` [Compound 1071, tert-butyl ((2R,6S,7R,9S,13aS,14aR,16aS,Z)-2-((5-chloro-3-propoxyisoquinolin-1-yl)oxy)-7,9-dimethyl-14a-(((1-methylcyclopropyl)sulfonyl)carbamoyl)-5,16-dioxo-1,2,3,5,6,7,8,9,10,11,13a,14,14a,15,16,16a-hexadecahydrocyclopropa[e]pyrrolo[1,2-a][1,4]diazacyclopentadecin-6-yl)carbamate]?
Answer: EC50 [1, 3]: < 5.46 nM; EC50 [2, 4]: < 5.46 nM

Question: What does the source list for `COCCn1nc(O[C@@H]2C[C@H]3C(=O)N[C@]4(C(=O)NS(=O)(=O)C5CC5)C[C@H]4/C=C\CC[C@H](C)C[C@@H](C)[C@H](NC(=O)OC(C)(C)C)C(=O)N3C2)c2ccccc2c1=O` [Compound 1007, tert-butyl ((2R,6S,7R,9S,13aS,14aR,16aS,Z)-14a-((cyclopropylsulfonyl)carbamoyl)-2-((3-(2-methoxyethyl)-4-oxo-3,4-dihydrophthalazin-1-yl)oxy)-7,9-dimethyl-5,16-dioxo-1,2,3,5,6,7,8,9,10,11,13a,14,14a,15,16,16a-hexadecahydrocyclopropa[e]pyrrolo[1,2-a][1,4]diazacyclopentadecin-6-yl)carbamate]?
Answer: EC50 [1, 3]: > 87.4 nM; EC50 ([1]; HCV genotype 1b replicon luciferase assay, read-out: LE_1b (EC50)): 438 nM; EC50 [2, 4]: > 87.4 nM; EC50 ([2]; HCV genotype 1a replicon luciferase assay, read-out: LE_1a (EC50)): ≥ 1000 nM

Question: How did the EC50 [1, 5] turn out when `COc1ccc2c(O[C@@H]3C[C@H]4C(=O)N[C@]5(C(=O)NS(=O)(=O)C6(C)CC6)C[C@H]5/C=C\CC[C@@H](C)C[C@@H](C)[C@H](NC(=O)NC(C)(C)C)C(=O)N4C3)nc(-c3ccc(OC(C)C)nc3)cc2c1` [Compound 5231, (2R,6S,7R,9R,13aS,14aR,16aS,Z)-6-(3-(tert-butyl)ureido)-2-((3-(6-isopropoxypyridin-3-yl)-6-methoxyisoquinolin-1-yl)oxy)-7,9-dimethyl-N-((1-methylcyclopropyl)sulfonyl)-5,16-dioxo-1,2,3,5,6,7,8,9,10,11,13a,14,14a,15,16,16a-hexadecahydrocyclopropa[e]pyrrolo[1,2-a][1,4]diazacyclopentadecine-14a-carboxamide] was run?
Answer: < 5.46 nM

Question: What about the EC50 [2, 6] of the same compound?
Answer: < 5.46 nM

Question: `COc1ccc2c(O[C@@H]3C[C@H]4C(=O)N[C@]5(C(=O)NS(=O)(=O)C6CC6)C[C@H]5/C=C\CC[C@@H](C)C[C@@H](C)[C@H](NC(=O)OC(C)(C)C(F)(F)F)C(=O)N4C3)nc(-c3ccc4c(c3)OCCO4)cc2c1` [Compound 5243, 1,1,1-trifluoro-2-methylpropan-2-yl((2R,6S,7R,9R,13aS,14aR,16aS,Z)-14a-((cyclopropylsulfonyl)carbamoyl)-2-((3-(2,3-dihydrobenzo[b][1,4]dioxin-6-yl)-6-methoxyisoquinolin-1-yl)oxy)-7,9-dimethyl-5,16-dioxo-1,2,3,5,6,7,8,9,10,11,13a,14,14a,15,16,16a-hexadecahydrocyclopropa[e]pyrrolo[1,2-a][1,4]diazacyclopentadecin-6-yl)carbamate] was tested. Which EC50 [1, 5] did it give?
Answer: < 5.46 nM

Question: And the EC50 [2, 6]?
Answer: < 5.46 nM

Question: For `COc1ccc2c(O[C@@H]3C[C@H]4C(=O)N[C@]5(C(=O)NS(=O)(=O)C6CC6)C[C@H]5/C=C\CC[C@@H](C)C[C@@H](C)[C@H](NC(=O)NC(C)(C)C)C(=O)N4C3)nc(-c3ccc(OC(C)C)cn3)cc2c1` [Compound 5211, (2R,6S,7R,9R,13aS,14aR,16aS,Z)-6-(3-(tert-butyl)ureido)-N-(cyclopropylsulfonyl)-2-((3-(5-isopropoxypyridin-2-yl)-6-methoxyisoquinolin-1-yl)oxy)-7,9-dimethyl-5,16-dioxo-1,2,3,5,6,7,8,9,10,11,13a,14,14a,15,16,16a-hexadecahydrocyclopropa[e]pyrrolo[1,2-a][1,4]diazacyclopentadecine-14a-carboxamide], which EC50 [1, 5] is on record?
Answer: < 5.46 nM

Question: What about the EC50 [2, 6] of the same compound?
Answer: < 5.46 nM
